Experimental findings from patent US8129355B2, “Ketone ligands for modulating the expression of exogenous genes via an ecdysone receptor complex” (priority 2002, dated 2012) are described below.

The target of this data set is T1, GAL4 DBD (1-147)-CfEcR(DEF)/VP16AD-βRXREF-LmUSPEF (Choristoneura fumiferana, UniProt O77240).
T1 sequence (O77240 191-513): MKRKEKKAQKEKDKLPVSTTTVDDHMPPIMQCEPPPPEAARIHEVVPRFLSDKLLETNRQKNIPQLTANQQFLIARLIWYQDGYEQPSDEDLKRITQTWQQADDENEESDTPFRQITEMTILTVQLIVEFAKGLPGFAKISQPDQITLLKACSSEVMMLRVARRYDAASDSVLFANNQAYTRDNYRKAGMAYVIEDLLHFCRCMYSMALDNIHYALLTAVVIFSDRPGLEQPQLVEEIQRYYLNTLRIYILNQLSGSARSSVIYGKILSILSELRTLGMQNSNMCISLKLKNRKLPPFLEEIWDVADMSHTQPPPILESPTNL
T1 sequence (P28702 296-455 partner limits assumed): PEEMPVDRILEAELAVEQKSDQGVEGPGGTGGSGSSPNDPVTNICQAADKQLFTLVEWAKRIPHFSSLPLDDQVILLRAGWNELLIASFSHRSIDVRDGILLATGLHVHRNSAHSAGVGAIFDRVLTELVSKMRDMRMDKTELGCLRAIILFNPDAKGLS
Nature of the data set: 27-63 assay: luciferase reporter gene expression in stable CHO cell clone 27-63. Conditions: for 27-63 Rel Max FI: maximum fold induction at any concentration relative to that of GS-E ligand; for CC50: read-out: 27-63 LC50, average, dose response, three-parameter logistic model. Put shortly:
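CHO clone stably expressing GAL4 DBD-CfEcR(DEF) and VP16AD-HsRXRβ/LmUSP EF chimera plus a 5XGAL4RE-luciferase reporter; ligands given at 8 concentrations (33 μM to 0.01 μM), luminescence read 48 h after treatment. Fold induction versus DMSO cells; BC50 from three-parameter logistic fit.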

Take `COC(=O)CN1CCCC(NC(=O)c2cccc(OC)c2C)(C(=O)c2cc(C)cc(C)c2)C1` (racemic) [Example 156]: the “27-63 Rel Max FI” value is on record as 0.00 and the CC50 was above 33 µM. Also, the “Fold Induction Average, 27-63 Assay (33 μM)” value (single dose 33 μM, RLU ligand treated / RLU DMSO treated cells) is on record as 3.
For `COc1cccc(C(=O)C2(NC(=O)c3cccc(OC)c3C)CCCCC2)c1` [Example 4], the “27-63 Rel Max FI” value was determined as 1.06 and the CC50 turned out to be 4.28 µM.
Regarding `COc1cccc(C(=O)NC2(C(=O)c3cccc(C)c3)CCCCC2)c1C` [Example 7], the “27-63 Rel Max FI” value came out at 0.77 and the CC50 came out at 3.52 µM.
With `COc1cccc(C(=O)NC2(C(=O)c3cc(C)cc(C)c3)CCCC2)c1C` [Example 10], the “27-63 Rel Max FI” value is given as 0.86 and the CC50 stood at 1.91 µM.
Regarding `COc1cccc(C(=O)NC2(C(=O)c3cc(C)cc(C)c3)CCCCC2)c1C` [Example 11], the “27-63 Rel Max FI” value is 0.97 and the CC50 worked out at 1.43 µM.
As for `COc1cccc(C(=O)NC(C)(Cc2ccccc2)C(=O)c2cc(C)cc(C)c2)c1C` (stereo not shown) [Example 12], the “27-63 Rel Max FI” value is 0.00 and the CC50 is above 33 µM.
As to `COc1cccc(C(=O)NC2(C(=O)c3cc(C)cc(C)c3)CC2)c1C` [Example 13], the “27-63 Rel Max FI” value is given as 0.09 and the CC50 was above 33 µM.
For the compound `COc1cccc(C(=O)NC2(C(=O)c3cc(C)cc(C)c3)CCC2)c1C` [Example 14], the “27-63 Rel Max FI” value came out at 0.89 and the CC50 is around 10 µM.
For the compound `COc1cccc(C(=O)NC2(C(=O)c3ccc(C)cc3)CCCCC2)c1C` [Example 15], the “27-63 Rel Max FI” value worked out at 0.87 and the CC50 is 6.18 µM.
The matching figures for `COc1cccc(C(=O)NC2(C(=O)c3ccc(F)c(C)c3)CCCC2)c1C` [Example 17]: 0.40 and around 5.5 µM.
The matching figures for `COc1cccc(C(=O)NC2(C(=O)c3ccc(F)c(C)c3)CCCCC2)c1C` [Example 18]: 0.53 and 3.27 µM.
As to `COc1cccc(C(=O)NC(C)(C(=O)c2cc(C)cc(C)c2)C(C)C)c1C` (stereo not shown) [Example 20], the “27-63 Rel Max FI” value came out at 0.71 and the CC50 turned out to be 2.56 µM.
On to `CCc1c(OC)cccc1C(=O)NC1(C(=O)c2ccccc2)CCCC1` [Example 21], for which the “27-63 Rel Max FI” value came to 0.09 and the CC50 is above 33 µM.
The matching figures for `CCc1c(C(=O)NC2(C(=O)c3ccccc3)CCCC2)ccc2c1OCCO2` [Example 22]: 0.60 and 10.8 µM.
Take `COc1cccc(C(=O)NC2(C(=O)c3cccc(C)c3)CCOCC2)c1C` [Example 25]: the “27-63 Rel Max FI” value is 0.00 and the CC50 was above 33 µM.
The matching figures for `COc1cccc(C(=O)NC2(C(=O)c3cccc(C)c3)CCSCC2)c1C` [Example 26]: 0.83 and 11 µM.
Consider `COc1cccc(C(=O)NC2(C(=O)c3cc(C)cc(C)c3)CCOCC2)c1C` [Example 27], for which the “27-63 Rel Max FI” value was found to be 0.96 and the CC50 is 10 µM. Further, where the note is “CHO, read-out: Fold Induction Average, 27-63 Assay (33 μM)”, the fold induction at 33 µM turned out to be 2740.
Turning to `COc1cccc(C(=O)NC2(C(=O)c3cc(C)cc(C)c3)CCSCC2)c1C` [Example 28], the “27-63 Rel Max FI” value turned out to be 0.85 and the CC50 was 1.8 µM.
Regarding `COc1cccc(C(=O)NC2(C(=O)c3cc(C)cc(C)c3)CCC3(CC2)OCCO3)c1C` [Example 29], the “27-63 Rel Max FI” value was 0.00 and the CC50 is above 33 µM.
`COc1ccccc1C(=O)C(C)(NC(=O)c1cccc(OC)c1C)C(C)C` (stereo not shown) [Example 30]: the “27-63 Rel Max FI” value is listed as 0.03 and the CC50 was above 33 µM.
For `COc1cccc(C(=O)NC(C)(C(=O)c2cccc(C)c2)C(C)C)c1C` (stereo not shown) [Example 31], the “27-63 Rel Max FI” value amounted to 0.61 and the CC50 is around 15 µM.
Turning to `COc1cccc(C(=O)C(C)(NC(=O)c2cccc(OC)c2C)C(C)C)c1` (stereo not shown) [Example 32], the “27-63 Rel Max FI” value is reported as 0.01 and the CC50 is above 33 µM.
